3 compounds from patent US8969249B2, “Synthesis and biological activity of bicyclic ABA analogs” (National Research Council of Canada, priority 2004, dated 2015) can be followed below.

Test [1] deals with Arabidopsis thaliana (Columbia wild type) seeds. Description: seed germination inhibition assay. Format: in vivo. To be noted: for germination index: lowest concentration of 0.33 μM. Here is the method: (§1) In yet an additional embodiment, bicyclic ABA and analogs of the present invention may be used in a process for inhibiting seed germination. In one embodiment, bicyclic ABA is used in a germination assay of Arabidopsis thaliana (Columbia wild type) seeds over a wide range of concentrations (0.33-33 μM). Similar treatments were performed for ABA [1] (both enantiomers) to allow for a direct comparison between ABA and bicyclic ABA (both enantiomers). The results are expressed in terms of germination indices, which summarize the rate and extent of germination over the time of the experiment at a given concentration. […] At the lowest concentration of 0.33 μM, the germination index for (+)-ABA (1) was almost 0.4, compared with less than 0.1 in the case of (+) bicyclic ABA [8].
as §1, with “Bicyclic” for “In yet an additional embodiment, bicyclic”, “produced using the process” for “and analogs”, “was also studied” for “may be used in a process for inhibiting seed germination. In one embodiment, bicyclic ABA is used”, “μM) (FIG. 7).” for “μM).”, “[1]” for “(1)”, “[8]. […] It was only active at concentrations of ≧1 μM.” for “[8].”
Arabidopsis thaliana (Columbia wild type) seed germination inhibition studies were performed as described by Cutler et. al. (23). The treatments were performed in duplicate with 50 seeds per plate and incubated at 24° C. with 16 hr days and 8 hr nights for the duration of the test (7 days).

Test [2] relates to suspension-cultured cells of maize (Black Mexican Sweet). Description: growth inhibition assay using suspension-cultured corn cells. To be noted: for inhibition of growth of suspension-cultured maize cells: dose-dependent over concentration range 0.1-10.0 μM. Format: cell-based. The text has this: In yet another embodiment, a process for inhibiting plant cell growth using the bicyclic ABA and analogs of the present invention is described. The ability of bicyclic ABA and analogs of the present invention to inhibit plant cell growth may be assayed with a growth inhibition assay. In one assay, suspension-cultured corn cells are used in a well characterized experimental system that has been useful for comparing the biological activity and metabolism of ABA and ABA analogs (6).
The growth inhibition assay using suspension-cultured corn cells is a well characterized experimental system that has been very useful for comparing the biological activity and metabolism of ABA and ABA analogs (6).
Maize cell cultures were treated as described by Balsevich et. al. (6). The cultures were incubated on a rotary shaker for 4 days, and the cells were separated from the medium by vacuum filtration and weighed immediately. The effect of ABA and bicyclic ABA on cell growth was determined at various concentrations (0-10 μM) by calculating the percentage increase in fresh weight [(final weight×100/initial weight)−100)]. Measurements were performed in triplicate and average values were normalized to a control (untreated) value of 100%.

Consider `CC1=CC(=O)CC(C)(C)C1(O)/C=C/C(C)=C\C(=O)O` (single isomer, unassigned; (+)) [(+)-ABA, abscisic acid, reference compound], for which, in test [1] (7-day test), the germination index is listed as ~0.4. In addition, in test [2], the “inhibition of growth of suspension-cultured maize cells” value is “inhibited the growth”.

For the compound `CC(=C/C(=O)O)/C=C/[C@@]1(O)c2ccccc2C(=O)CC1(C)C` [(+)-[8], (2Z,4E)-5-((1S)-1-Hydroxy-2,2-dimethyl-4-oxo-1,2,3,4-tetrahydro-naphthalen-1-yl)-3-methyl-penta-2,4-dienoic acid], in test [1] ((+)-[8] versus (+) ABA, (−)-[8] versus (+)-[8]), the “germination inhibition compared with comparator (in words)” value is “more effective germination inhibitor than (+) ABA”. For the same compound, the “inhibition of seed germination (in words)” value in test [1] (all concentrations (0.33-33 μM), 7-day test period) is on record as “highly effective”. Further, the germination index entry in test [1] (7-day test) is recorded as “less than 0.1”. Further, the “inhibitory activity (cell growth) relative to (+)-ABA” value in test [2] (BMS maize suspension cells, 4 days, FIG. 6) was ~10 fold. Besides, the “inhibition of growth of suspension-cultured maize cells” value in test [2] is “inhibited the growth”.

Regarding “abscisic acid [(−) enantiomer of ABA [1], reference compound]”, in test [1] (tested 0.33-33 μM, 7-day test), the “concentrations at which active/effective in inhibiting germination” value was ≥ 3.33 µM.
